According to patent US6706663B2, “Herbicidal 3-heterocyclic substituted benzisothiazole and benzisoxazole compounds” (Wyeth, priority 2000, dated 2004):

Assays:
ZEAMX (Corn, Field) [1] = test: Preemergence herbicidal evaluation; type: in vivo, Zea mays, L.; details: preemergence, rated 4-5 weeks after treatment
ORYSAT (Rice, Tebonnet) = test: Flooded paddy, post-transplant rice tolerance; type: in vivo, Oryza sativa, (L.) Tebonnet; details: flooded paddy, post-transplant rice, rated 3-4 weeks after treatment, 0-9 rating scale
Method in brief: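 Two ten-day-old Tebonnet rice seedlings transplanted into silt loam, then flooded with water held at 1.5–3 cm above soil; herbicide applied post-transplant. Plants kept in greenhouse and rated visually 0–9 versus untreated control for stand, vigor, malformation, size and chlorosis.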

[2] = test system: TRZAWR (Wheat, Winter, cv Riband); test: Preemergence herbicidal evaluation; type: in vivo, Triticum aestivum; details: preemergence, rated 4-5 weeks after treatment
Method in brief: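 Seeds planted in potting soil cups and sprayed preemergence with aqueous acetone compound solution. Greenhouse-grown; rated 4–5 weeks after treatment on a 0-9 visual scale (stand, vigor, malformation, size, chlorosis, appearance) versus control.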

[3] = test system: GLXMAW (Soybean, Williams); test: Preemergence herbicidal evaluation; type: in vivo, Glycine max, (L.) Merr. cv Williams; details: preemergence, rated 4-5 weeks after treatment
[4] = test system: ECHCG (Echinochloa crus-galli); test: Postemergence herbicidal evaluation; type: in vivo, (L.) Beau
Method in brief: (§1)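 Seedlings grown about two weeks in flats, sprayed, then kept under standard greenhouse care. Rated visually 4–5 weeks after treatment on a 0–9 scale (stand, vigour, malformation, size, chlorosis, overall appearance) relative to untreated control; repeat tests averaged.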

[5] = test system: ECHORC (Echinochloa oryzoides); test: Flooded paddy, preemergence weed control; type: in vivo, Echinochloa oryzoides (Ard.) Fritsch.; details: rated 3-4 weeks after treatment, 0-9 rating scale
Method in brief: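 Preemergence, flooded: propagules planted at 0.5 cm depth in silt loam, water level maintained at 1.5 to 3 cm over soil, containers kept on greenhouse benches. Activity scored 0-9 by eye relative to a control plant.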

ZEAMX (Corn, Field) [6] = test: Postemergence herbicidal evaluation; type: in vivo, Zea mays, L.
Method in brief: as §1

[7] = test system: GLXMAW (Soybean, Williams); test: Postemergence herbicidal evaluation; type: in vivo, Glycine max, (L.) Merr. cv Williams
Method in brief: as §1

[8] = test system: IPOHE (Ipomoea hederacea); test: Preemergence herbicidal evaluation; type: in vivo, (L.) Jacq.; details: preemergence, rated 4-5 weeks after treatment
[9] = test system: ABUTH (Abutilon theophrasti); test: Preemergence herbicidal evaluation; type: in vivo, Medic.; details: preemergence, rated 4-5 weeks after treatment

Row | Structure (SMILES) | ZEAMX preemergence herbicidal rating (ZEAMX (Corn, Field) [1]; Rate 0.0620 kg/ha) | ZEAMX preemergence herbicidal rating (ZEAMX (Corn, Field) [1]; Rate 0.1250 kg/ha) | ZEAMX preemergence herbicidal rating (ZEAMX (Corn, Field) [1]; Rate 0.2500 kg/ha) | herbicidal rating, ORYSAT (rice tolerance) (ORYSAT (Rice, Tebonnet); rate 0.0320 kg/ha) | TRZAWR preemergence herbicidal rating ([2]; Rate 0.0620 kg/ha) | TRZAWR preemergence herbicidal rating ([2]; Rate 0.1250 kg/ha) | GLXMAW preemergence herbicidal rating ([3]; Rate 0.0620 kg/ha) | GLXMAW preemergence herbicidal rating ([3]; Rate 0.1250 kg/ha) | GLXMAW preemergence herbicidal rating ([3]; Rate 0.2500 kg/ha) | Postemergence herbicidal rating, ECHCG ([4]; rate 0.0320 kg/ha) | Postemergence herbicidal rating, ECHCG ([4]; rate 0.0620 kg/ha) | herbicidal rating, ECHORC ([5]; rate 0.0320 kg/ha) | herbicidal rating, ECHORC ([5]; rate 0.1250 kg/ha) | Postemergence herbicidal rating, ZEAMX (ZEAMX (Corn, Field) [6]; rate 0.0320 kg/ha) | Postemergence herbicidal rating, ZEAMX (ZEAMX (Corn, Field) [6]; rate 0.0620 kg/ha) | Postemergence herbicidal rating, GLXMAW ([7]; rate 0.0320 kg/ha) | Postemergence herbicidal rating, GLXMAW ([7]; rate 0.0620 kg/ha) | IPOHE preemergence herbicidal rating ([8]; Rate 0.0620 kg/ha) | IPOHE preemergence herbicidal rating ([8]; Rate 0.1250 kg/ha) | IPOHE preemergence herbicidal rating ([8]; Rate 0.2500 kg/ha) | further results
1 | COC(=O)C(C)Oc1ccsc1-c1nsc2ccc(-n3c(=O)cc(C(F)(F)F)n(C)c3=O)cc12 (stereo not drawn) [Compound 23, methyl 2-[(2-[5-[3,6-dihydro-3-methyl-2,6-dioxo-4-(trifluoromethyl)-1(2H)-pyrimidinyl]-1,2-benzisothiazol-3-yl]-3-thienyl]oxy]propionate] | 0.0 | 0.0 | 0.0 | 0.0 | 0.0 | 0.0 | 0.0 | 0.0 | 0.0 | 0.0 | 1.0 | 0.0 | 3.0 | 5.0 | 6.5 | 4.0 | 5.0 | 0.0 | 0.0 | 0.0 | herbicidal rating, ORYSAT (rice tolerance) (ORYSAT (Rice, Tebonnet); rate 0.1250 kg/ha): 3.0; TRZAWR preemergence herbicidal rating ([2]; Rate 0.2500 kg/ha): 0.0; Postemergence herbicidal rating, ECHCG ([4]; rate 0.1250 kg/ha): 5.0; Postemergence herbicidal rating, ZEAMX (ZEAMX (Corn, Field) [6]; rate 0.1250 kg/ha): 7.0; Postemergence herbicidal rating, GLXMAW ([7]; rate 0.1250 kg/ha): 5.0; ABUTH preemergence herbicidal rating ([9]; Rate 0.0620 kg/ha): 0.0; ABUTH preemergence herbicidal rating ([9]; Rate 0.1250 kg/ha): 0.0; ABUTH preemergence herbicidal rating ([9]; Rate 0.2500 kg/ha): 1.0
2 | Cn1c(C(F)(F)F)cc(=O)n(-c2ccc3snc(C4SCCS4)c3c2)c1=O [Compound 24, 3-[3-(1,3-dithiolan-2-yl)-1,2-benzisothiazol-5-yl]-1-methyl-6-(trifluoromethyl)uracil] | 0.0 | 1.0 | 3.0 | 0.0 | 0.0 | 2.0 | 2.0 | 2.5 | 4.0 | 0.0 | 2.0 | 5.0 | 7.0 | 5.5 | 6.0 | 8.0 | 8.5 | 2.0 | 6.5 | 7.0 | ABUTH preemergence herbicidal rating ([9]; Rate 0.0620 kg/ha): 3.5; ABUTH preemergence herbicidal rating ([9]; Rate 0.1250 kg/ha): 7.0; ABUTH preemergence herbicidal rating ([9]; Rate 0.2500 kg/ha): 9.0
3 | Cn1c(C(F)(F)F)cc(=O)n(-c2ccc3snc(C4OCCCO4)c3c2)c1=O [Compound 28, 3-(3-m-dioxan-2-yl-1,2-benzisothiazol-5-yl)-1-methyl-6-(trifluoromethyl)uracil] | 8.0 | 9.0 | 9.0 | 9.0 | 9.0 | 9.0 | 8.0 | 9.0 | 9.0 | 4.3 | 8.5 | 8.5 | 9.0 | 5.8 | 6.3 | 9.0 | 9.0 | 9.0 | 9.0 | 9.0 | herbicidal rating, ORYSAT (rice tolerance) (ORYSAT (Rice, Tebonnet); rate 0.0080 kg/ha): 7.0; herbicidal rating, ORYSAT (rice tolerance) (ORYSAT (Rice, Tebonnet); rate 0.1250 kg/ha): 9.0; TRZAWR preemergence herbicidal rating ([2]; Rate 0.2500 kg/ha): 9.0; herbicidal rating, ECHORC ([5]; rate 0.0080 kg/ha): 5.0; ABUTH preemergence herbicidal rating ([9]; Rate 0.0620 kg/ha): 9.0; ABUTH preemergence herbicidal rating ([9]; Rate 0.1250 kg/ha): 9.0; ABUTH preemergence herbicidal rating ([9]; Rate 0.2500 kg/ha): 9.0
